Measurements: patent US8604225B2, “Method of producing hydroxymethyl-furfural” (Novozymes, A/S, priority 2010, dated 2013)

Columns and labels:
[1] = target: T1, immobilized glucose isomerase (Sweetzyme™) (Streptomyces murinus, UniProt P37031); test: Effect of HMF on the initial activity of Sweetzyme™ (batch bottles); format: biochemical, S. murinus; parameters: purchased Novozymes A/S; settings: for initial activity: 60° C.
Procedure: 2.5 gram immobilized glucose isomerase (Sweetzyme™) was loaded to a 250 mL square shaped bottles with screw cap. The bottles were placed in an orbital shaker and heated to 60° C.
The following conditions were applied for 4 bottles. The term conversion is defined as the fructose/glucose ratio.
Conversion vs. time is presented in FIG. 10 and the initial activity is calculated to be 389.
Conversion vs. time is presented in FIG. 11 and the initial activity is calculated to be 378.
Conversion vs. time is presented in FIG. 12 and the initial activity is calculated to be 364.

[2] = target: T1, immobilized glucose isomerase (Sweetzyme™); test: Glucose isomerase performance with substrate containing HMF; format: biochemical, S. murinus; parameters: purchased Novozymes A/S; settings: for Activity: Syrup with 0.1 w/w % HMF
Procedure: To the substrate was added hydroxymethylfurfural (HMF) to a final concentration of 0.1 w/w % HMF.

T1 sequence (P37031 whole entry): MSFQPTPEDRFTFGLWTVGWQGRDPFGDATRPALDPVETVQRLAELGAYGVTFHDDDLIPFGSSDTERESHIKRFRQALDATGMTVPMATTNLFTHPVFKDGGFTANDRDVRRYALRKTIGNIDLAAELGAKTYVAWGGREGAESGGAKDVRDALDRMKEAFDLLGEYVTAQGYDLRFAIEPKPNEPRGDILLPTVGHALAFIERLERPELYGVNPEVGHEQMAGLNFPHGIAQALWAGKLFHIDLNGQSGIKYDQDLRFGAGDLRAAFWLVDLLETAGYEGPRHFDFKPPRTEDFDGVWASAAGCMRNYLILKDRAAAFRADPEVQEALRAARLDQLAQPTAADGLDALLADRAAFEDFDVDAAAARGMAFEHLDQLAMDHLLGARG

`O=Cc1ccc(CO)o1` [HMF, 5-(hydroxymethyl)-2-furaldehyde] gave an initial activity ([1]; Bottle 2: 0.01 w/w % HMF in 45% glucose syrup) of 389, an initial activity ([1]; Bottle 3: 0.1 w/w % HMF in 45% glucose syrup) of 378 and an initial activity ([1]; Bottle 4: 1 w/w % HMF in 45% glucose syrup) of 364. For the same compound, the “Sweetzyme™ activity as a function of HMF concentration” value ([1]; FIG. 13, 0.01-1 w/w % HMF) was “not seriously affected”, the Activity ([2]; time 94.25 h) was 360.39 IGIU/g and the Activity ([2]; time 116.25 h) was 267.97 IGIU/g. It also gave an Activity ([2]; time 139.50 h) of 368.20 IGIU/g, an Activity ([2]; time 162.75 h) of 359.92 IGIU/g and an Activity ([2]; time 237.25 h) of 367.23 IGIU/g. The Activity ([2]; time 259.17 h) was 353.51 IGIU/g, the Activity ([2]; time 283.67 h) was 363.92 IGIU/g and the Activity ([2]; time 311.08 h) was 358.90 IGIU/g. The “decay rate compared to a column with normal syrup” value ([2]; after 9 days with substrate containing 0.1 w/w % HMF) was “not affected”.
